Where a name gives a salt, the structure may show the parent alone. One block for each compound: values may come before it.
Legend:
[1] = tested on: zebrafish; experiment: Imaging of Zn^2+ in developing zebrafish, probe added to fish tank water; assay type: in vivo
Text: The most attractive application for zinc probes is sensing Zn^2+ in living organisms. Our ability to discover the fundamental roles of Zn^2+ is dependent on the tools available to detect the Zn^2+ population/concentration in living biological systems. Zebrafish has recently become an important model organism for the study of vertebrate imaging. This is because the embryos of zebrafish are transparent, allowing for clear observation of their organs without the need for dissection. The optical transparancy of zebrafish, therefore, provides a convenient organism for detection of ions by fluorescence microscopy. […] Encouraged by the cell permeability (FIG. 20), Zinhbo-5 was thus examined in developing zebrafish of various stages by adding Zinhbo-5 to fish tank water (treatment lasted for one hour at room temperature). […] However, there were more labeling in other parts of the body in the Zn^2+ treated larvae (FIG. 22 at I). […] Herein the in vivo recognition of the zinc-rich organ in zebrafish larva could be seen with higher image quality by using Zinhbo-5. […] The in vivo results with sensor Zinhbo-5 are somewhat different in light of the previously reported data where zinc was detected using fluorescent sensors in zebrafish. In those studies, fluorescent labeling was concentrated in the heart ventricle of embryos (50 hpf), and scattered throughout the body in larvae (4-5-day old). Whereas Zinhbo-5 labeling is confined mainly to the nose and neuromasts of the lateral line system during this period.
All images show lateral views of live embryos (anterior to the left and dorsal up). The labeled cells are scattered throughout the embryo at 17 hpf (panels A and B). Panel B is a higher magnification of the mid-trunk region of the embryo shown in panel A. Arrowheads in panel B indicate several labeled cells. Zinhbo-5 labeling becomes more restricted as development proceeds. At 50 hpf, Most labeled cells are concentrated in the nose neuromasts of the lateral line system (panels C-F). Arrowheads and asterisks in panels C and D point to some neuromasts in the posterior lateral line system on this side and the other side of the body trunk, respectively. Panels E and F are higher magnifications of the head region of the labeled embryos. Embryos in panels D and F had been treated with Zn2+ before Zinhbo-5 labeling. (Abbreviations: io2, infraorbital line neuromast 2; ml1, middle line neuromast 1; n, nose; o1 and o2, otic lateral line neuromasts 1 and 2; po1, postorbital neuromast 1; so2, supraorbital line neuromast 2).
All images show lateral views (anterior to the left and dorsal up) of live zebrafish larvae. Panels A-C are low magnification images showing almost the entire fish; panels D-F show higher magnification of the head region, while panels G-J show higher magnification of the mid-trunk region of the fish. Panels A, D and G are from larvae labeled with Zinhbo-5. Panels B, E and I are from larvae that had been treated with zinc before exposed to Zinhbo-5. Panels C, F and J are from larvae that were simultaneously treated with Zinhbo-5 and TPEN. […] (Abbreviations: io1 and io3, infraorbital line neuromasts 1 and 3; so1, supraorbital line neuromast 1; ye, yolk extension. Other abbreviations are the same as in FIG. 9).

[2] = Determination of association constant by fluorescence titration with Zn^2+; assay type: binding
Method: (§1) The NIR emission intensity at ˜710 nm was linearly proportional to the Zn^2+ concentration (linearly dependent coefficient: R^2=0.9982) (FIGS. 18 and 19). […] The association constants K11 and K12 were determined by a nonlinear least-squares analysis of fluorescence intensity versus Zn^2+ ion concentration to be 3.21×10^5 M^−1 and 3.88×10^10 M^−2, respectively.
An approximate linear fit formula is used to calculate the single association constant Kass1 and Kass2:
[formula] where n is the number of equivalents of the added metal ions, F0 is the fluorescence intensity of the free sensor, and F1 is the fluorescence intensity in the presence of excess cation, C0 is the initial concentration of Zinhbo-5. Kass1 and Kass2 can be obtained by a linear analysis of (F1−F)(x) versus

[3] = tested on: Hela cells; experiment: Fluorescence imaging of intracellular Zn^2+ in Hela cells; assay type: cell-based
Method: The Zinhbo-5 sensor was applied on Hela cells, in order to examine whether the probe could be useful in living systems under a confocal laser scanning microscopy. […] After three times washing with PBS buffer, the cells were incubated with ZnCl2 (10 μM) in the medium for another 30 min at 37° C., and the fluorescence in living cells was much brighter (FIG. 20, at D).
Hela cells were cultured in DEME (Invitrogen) supplemented with 10% FCS (Invitrogen). One day before imaging, cells were seeded in 24-well flat-bottomed plates. The next day, the Hela cells were incubated with 10 μM sensor Zinhbo-5 for 0.5 h at 37° C. under 5% CO2 and then washed with phosphate-buffered saline (PBS) three times before incubating with 10 μM ZnCl2 for another 0.5 h, cells were rinsed with PBS three times again, then the fluorescence imaging of intracelluar Zn2+ was observed under Nikon eclipase TE2000-5 inverted fluorescence microscopy with a 32× objective lens. The Hela cells only incubated with 10 μM Zinhbo-5 for 0.5 hour at 37° C. under 5% CO2 was as a control. For all images, the microscope settings, such as brightness, contrast, and exposure time were held constant to compare the relative intensity of intracellular Zn^2+ fluorescence.

[4] = Fluorescence response of the sensor in solution upon addition of Zn^2+; assay type: physicochemical
Text: Free ligand Zinhbo-5 gave only weak green fluorescence at 520 and 560 nm. The green fluorescence signal was increased gradually upon addition of Zn^2+ (FIGS. 12 and 13). In addition, a new emission peak at ˜763 nm occurred, which has a very large Stokes shift (˜285 nm). The new emission band was attributed to the keto form arising from the ESIPT process (FIGS. 14 and 15). […] This is because the substituent at the 5-position of benzoxazole unit exerts less electronic interferences to the anticipated ESIPT process (as shown in structure 5). […] The stronger ESIPT from 9 could be associated with the increased rigidity, when two ligands were assembled together via chelation with Zn^2+ cation.
as §1
All the solvents were of analytic grade. The salt used in stock solutions of metal ions were Zn(OAc)2.2H2O, Co(OAc)2.4H2O, Ni(OAc)2.4H2O, Cu(OAc)2.H2O, MgSO4, Cd(OAc)2.6H2O, Mn(OAc)2.4H2O, FeCl2. 4H2O, CaCl2, Na2SO4, Hg(OAc)2, AgNO3, Pb(OAc)2.3H2O, KNO3. Water used was ultra filter deionized and purchased from fisher. HEPES (2-[4-(2-hydroxyethyl)-1-piperazinyl]-ethanesulfonic acid) was from Fisher. NMR spectra were collected on a Varian 300 Gemini spectrometer. Mass spectrometric data were obtained on a HP1100LC/MSD mass spectrometry. UV-Vis spectra were acquired on a Hewlett-Packard 8453 diode-array spectrometer. Fluorescence spectra were obtained on a HORIBA Jobin Yvon NanoLog spectrometer. All pH measurements were made with a model RS232 meter. The fluorescence quantum yield were obtained using quinine sulfate as the standard (Φ=0.53, 0.1 M H2SO4). Cell fluorescence imaging were obtained on a Nikon Eclipse TE2000-5 fluorescence microscope, and analyzed by MetaFluor software (Universal Imaging Corp.).

[5] = 0.1 M H2SO4; cited from earlier work

- Kd (sensitivity for Zn^2+) ([2]; aqueous solution): 2.58 nM^2
- cell permeability ([3]; living cells): cell-permeable
- new emission peak upon addition of Zn^2+ ([4]; FIGS. 12 and 13, keto form ESIPT emission): ~763 nm
- fluorescence quantum yield Φfl upon addition of one equivalent Zn2+ ([4]; HEPES buffer solution with 50% EtOH, 1 equivalent Zn2+): 0.17
- fluorescence quantum yield Φfl of free ligand ([4]; HEPES buffer solution with 50% EtOH, no Zn^2+): 0.081
- fluorescence enhancement upon zinc binding (green emission) ([4]; aqueous solution): about 14 fold
- NIR emission strength upon zinc binding, comparison ([4]; at ~763 nm, THF, excitation 480 nm (FIG. 14), Zinhbo-5 vs Zinhbo-1, 9 vs crystal 10): quite stronger NIR emission
- Stokes shift of the new emission peak ([4]; peak at ~763 nm): ~285 nm
SMILES: CC(C)(C)c1ccc2oc(-c3cc(O)c(-c4nc5c(CN(Cc6ccccn6)Cc6ccccn6)cccc5o4)cc3O)nc2c1 [Zinhbo-5]
- distribution of labeled zinc-concentrated cells ([1]; 17 hpf, one hour treatment at room temperature): distributed throughout the embryos
- distribution of labeled zinc-concentrated cells ([1]; 50 hpf and 72 hpf): mainly located in the nose and neuromasts of the lateral line system
- labeling pattern in older larvae ([1]; 82 hpf): remained similar
- labeling in lateral line structures, exogenous Zn^2+ treated vs untreated larvae ([1]; 82 hpf, Zn^2+ 20 μM): no obvious difference
- labeling in larvae treated with TPEN ([1]; 82 hpf, zinc chelator TPEN): almost completely eliminated
- association constant K12 / overall association constant Kass ([2]; 2:1 host-guest complex, fluorescence at 710 nm): 3.88×10^10 M^−2
- association constant Kass2 ([2]; fluorescence at 710 nm): 121000 M⁻¹
- association constant K11 / Kass1 ([2]; fluorescence intensity versus Zn^2+ concentration, 710 nm): 321000 M⁻¹
- fluorescence inside living cells, probe only ([3]; 10 μM probe, 30 min, 37° C.): very weak fluorescence
- cell viability in bright-field transmission image ([3]; cells treated with probe and Zn^2+): viable throughout the imaging experiments
- toxicity to the cell culture ([3]; imaging conditions): primarily nontoxic
- fluorescence in living cells after incubation with ZnCl2 ([3]; then ZnCl2 (10 μM), 30 min, 37° C.): much brighter
- emission intensity after subsequent addition of TPEN ([3]; zinc chelator TPEN added after Zn^2+): reverted the emission intensity to that of the zinc-free system

SMILES: C=C[C@H]1C[N@@]2CC[C@H]1C[C@H]2[C@H](O)c1ccnc2ccc(OC)cc12 [quinine sulfate]
- fluorescence quantum yield of standard [5]: 0.53
